Consider 19 compounds from patent US4808596A, “Imidazo[4,5-b]pyridine compounds and pharmaceutical compositions containing same” (Tokyo Tanabe Company, Ltd., priority 1986, dated 1989).

Molecules are shown by their SMILES. Read-outs that look alike come from different tables or passages of the source.

One data set in a line: physchem. The data set is classed as physicochemical. The settings on record: solid. The procedure: The storage stability of the present compounds [I] was tested by allowing each test compound to stand under severe conditions (i.e., a temperature of 60° C. and a relative humidity of 75%) for 8 days and then determining its percentage of residue according to a thin-layer densitometric method (Bunseki Kagaku, Vol. 23, No. 9, p. 1016, 1974). More specifically, upon completion of the severe treatment, 100 μg of each test compound was applied to a thin-layer plate and this plate was developed with a chloroform-ethanol mixture (volume ratio 10:1). The thin-layer plate used for this purpose was a TLC Plate Aluminum Oxide 60F254 (manufactured by Merck Co.; 0.25 mm in thickness and 20 cm×20 cm in size), and it was developed over a distance of 15 cm. Then, using a Shimazu Two-wavelength Chromatoscanner CS-910 (manufactured by Shimazu Seisakusho), the resulting spot was analyzed at a wavelength of 300-315 nm.
For purposes of comparison, the percentages of residue of Omeprazole (at a measuring wavelength of 300 nm) and Compounds α and β (at a measuring wavelength of 310 nm) were determined in the same manner as described above and are also shown in Table 1.

In a further data set the test system is gastric acid secretion. Briefly: Inhibitory effect on gastric acid secretion (pylorus ligation). The class given is in vivo, male Wistar rats. The conditions noted are these: Rattus norvegicus, po, rats; total acidity of gastric juice 4 hours after pylorus ligation. The procedure: The inhibitory effect of the present compounds [I] on gastric acid secretion was tested by using male Wistar rats, weighing about 200 g, in groups of five. To these rats which had been fasted overnight, the test compounds were orally administered in a series of appropriately selected doses ranging from 1 to 100 mg/kg. Then, the pyloric end of the stomach was ligated. After the lapse of 4 hours, the total acidity of gastric juice of each rat was measured. More specifically, the test compounds were suspended in a 0.5% aqueous solution of carboxymethyl cellulose and administered to the rats 30 minutes before ligation. Gastric juice was collected by sacrificing and laparotomizing each rat. The total acidity of gastric juice was determined by titrating the gastric juice with a 0.1 N aqueous solution of sodium hydroxide until a pH of 7.0 was reached. As a control experiment, the total acidity of gastric juice of an untreated group was determined in the same manner as described above. The inhibitory effect of the test compounds on gastric acid secretion was evaluated on the basis of the dose (in mg/kg) required to inhibit gastric acid secretion, i.e. the total acidity of gastric juice, by 50% (hereinafter referred to as ED50). The ED50 value of each test compound was determined by calculating the difference in total acidity between the untreated group and each treated group, dividing the difference by the total acidity of the untreated group to obtain the degree of inhibition, and constructing a dose-response curve on the basis of the data thus obtained. For purposes of comparison, the ED50 values of Omeprazole and Compounds α and β were determined in the same manner as described above and are also shown in Table 3.

A further data set concerns the target T1, (H^+ +K^+) ATPase (Sus scrofa, UniProt P19156).
T1 construct: prepared from fresh pieces of the fundus ventriculi of hog stomach; from tissue; host or cells: hog stomach, fundus ventriculi (fresh pieces), prepared by the method of Saccomani et al., J. Biol. Chem. 1976
Briefly: Inhibitory effect on (H^+ +K^+) ATPase. The settings on record: at 1 × 10^-3 M; in vitro; read-out: Degree of inhibition, Inhibitory effect on (H^+ + K^+) ATPase. The data set is classed as biochemical, hog. The procedure:
The inhibitory effect of the present compounds [I] on (H^+ +K^+) ATPase was tested by adding each test compound to a solution containing 300-500 μg, on a protein basis, of the enzyme, incubating this reaction mixture at 35°-37° C. for 5-30 minutes, and then determining the residual activity of (H^+ +K^+) ATPase present in the reaction mixture. The test compounds were dissolved in methanol or ethanol in advance and added to the reaction system in such an amount as to give a concentration of 1×10^-3 M. The (H^+ +K^+) ATPase used in this test was prepared from fresh pieces of the fundus ventriculi of hog stomach according to the method of Saccomani et al. (The Journal of Biological Chemistry, Vol. 251, No. 23, p. 7690, 1976). The residual activity of (H^+ +K^+) ATPase was determined by mixing magnesium chloride and potassium chloride with the incubated reaction mixture, adding adenosine triphosphate thereto, incubating this assay mixture 37° C. for 5-15 minutes to effect an enzymic reaction, and colorimetrically determining the liberated inorganic phosphate by use of an ammonium molybdate reagent. The initial concentrations of magnesium chloride, potassium chloride and adenosine triphosphate were adjusted to 2 mM, 20 mM and 2 mM, respectively. Colorimetric determinations were made at a wavelength of 360-400 nm. As a control experiment, the residual activity of (H^+ +K^+) ATPase was determined by repeating the above-described procedure without adding any test compound to the reaction system. In this table, the inhibitory effect is indicated by the degree of inhibition which was obtained by calculating the difference between the measured value obtained in the control experiment and the measured value resulting from the addition of each test compound and expressing this difference as a percentage of the measured value obtained in the control experiment. For purposes of comparison, the inhibitory effect of Omeprazole and Compounds α and β on (H^+ +K^+) ATPase was tested in the same manner as described above and the results thus obtained are also shown in Table 2.

T1 sequence (P19156 2-1034 limits assumed): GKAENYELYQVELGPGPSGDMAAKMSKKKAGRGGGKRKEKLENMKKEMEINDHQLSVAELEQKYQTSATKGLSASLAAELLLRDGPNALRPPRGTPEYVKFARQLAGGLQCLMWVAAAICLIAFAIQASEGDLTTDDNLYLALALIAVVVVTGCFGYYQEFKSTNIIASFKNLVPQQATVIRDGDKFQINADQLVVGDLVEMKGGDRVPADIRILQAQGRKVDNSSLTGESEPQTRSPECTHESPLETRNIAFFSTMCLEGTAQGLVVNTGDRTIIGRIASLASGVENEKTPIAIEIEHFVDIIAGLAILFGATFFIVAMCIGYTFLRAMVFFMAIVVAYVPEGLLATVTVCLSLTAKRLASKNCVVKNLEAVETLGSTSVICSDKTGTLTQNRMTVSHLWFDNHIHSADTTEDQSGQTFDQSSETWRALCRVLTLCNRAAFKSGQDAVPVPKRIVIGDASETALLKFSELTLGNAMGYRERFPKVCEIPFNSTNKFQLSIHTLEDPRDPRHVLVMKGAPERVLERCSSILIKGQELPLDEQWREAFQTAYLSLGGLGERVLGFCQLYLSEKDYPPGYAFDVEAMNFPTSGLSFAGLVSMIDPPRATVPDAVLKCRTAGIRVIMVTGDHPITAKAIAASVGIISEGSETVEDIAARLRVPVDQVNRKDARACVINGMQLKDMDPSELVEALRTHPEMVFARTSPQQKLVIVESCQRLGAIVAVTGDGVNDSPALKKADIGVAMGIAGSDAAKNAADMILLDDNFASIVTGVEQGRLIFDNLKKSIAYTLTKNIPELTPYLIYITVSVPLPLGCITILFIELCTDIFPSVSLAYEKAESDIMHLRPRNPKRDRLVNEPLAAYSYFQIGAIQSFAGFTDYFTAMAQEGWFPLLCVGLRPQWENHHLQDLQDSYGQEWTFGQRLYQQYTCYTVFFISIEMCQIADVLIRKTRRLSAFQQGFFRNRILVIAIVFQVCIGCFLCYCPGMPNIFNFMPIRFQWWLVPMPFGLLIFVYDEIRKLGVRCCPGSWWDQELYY
T1 sequence (P18434 whole entry partner): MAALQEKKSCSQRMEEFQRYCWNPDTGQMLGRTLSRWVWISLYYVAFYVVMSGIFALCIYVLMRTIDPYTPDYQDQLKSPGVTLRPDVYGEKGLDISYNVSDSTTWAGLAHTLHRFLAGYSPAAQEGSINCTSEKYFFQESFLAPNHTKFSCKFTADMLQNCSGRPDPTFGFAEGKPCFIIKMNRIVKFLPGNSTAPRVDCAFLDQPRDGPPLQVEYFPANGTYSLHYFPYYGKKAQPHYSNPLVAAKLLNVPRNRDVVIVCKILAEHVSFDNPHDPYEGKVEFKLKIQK

`COc1ccc2[nH]c([S+]([O-])Cc3ncc(C)c(OC)c3C)nc2n1` (stereo not drawn) [Example 2, 2-[2-(3,5-Dimethyl-4-methoxy)pyridylmethylsulfinyl]-5-methoxyimidazo[4,5-b]pyridine] gave a remaining at 192 h in the data set “physchem” (75% rh) of 77%. In the data set with gastric acid secretion, the 50% effective dose (ED50) was 18 mg/kg. Also, the inhibition at 1000 µM at (H^+ +K^+) ATPase is 96.6%.
The matching figures for `COc1ccc2[nH]c([S+]([O-])Cc3ncc(C)c(C)c3C)nc2n1` (stereo not drawn) [Example 3, 2-[2-(3,4,5-Trimethyl)pyridylmethylsulfinyl]-5-methoxyimidazo[4,5-b]pyridine]: 99%, 9 mg/kg and 100%.
In the same order, the values of `COc1ccc2[nH]c([S+]([O-])Cc3cc(OC)c(C)cn3)nc2n1` (stereo not drawn) [Example 4, 2-[2-(4-Methoxy-5-methyl)pyridylmethylsulfinyl]-5-methoxyimidazo[4,5-b]pyridine] are 98%, 15 mg/kg and 100%.
Take `COc1cc(C[S+]([O-])c2nc3nccc(OC)c3[nH]2)ncc1C` (stereo not drawn) [Example 7, 2-[2-(4-Methoxy-5-methyl)pyridylmethylsulfinyl]-7-methoxyimidazo[4,5-b]pyridine]: the remaining at 192 h in “physchem” (75% rh) is 53%. Also, in the data set with gastric acid secretion, the 50% effect level (ED50) was put at a dose of 22 mg/kg. In addition, the inhibition at 1000 µM on (H^+ +K^+) ATPase came out at 98.8%.
The matching figures for `Cc1cnc(C[S+]([O-])c2nc3nc(OC(C)C)ccc3[nH]2)c(C)c1` (stereo not drawn) [Example 10, 2-[2-(3,5-Dimethyl)pyridylmethylsulfinyl]-5-isopropyloxyimidazo[4,5-b]pyridine]: 92%, 19 mg/kg and 90%.
The matching figures for `CCCCOc1ccc2[nH]c([S+]([O-])Cc3ncc(C)c(C)c3C)nc2n1` (stereo not drawn) [Example 12, 2-[2-(3,4,5-Trimethyl)pyridylmethylsulfinyl]-5-n-butyloxyimidazo[4,5-b]pyridine]: 76%, 21 mg/kg and 98.5%.
In the same order, the values of `CCOc1ccc2[nH]c([S+]([O-])Cc3ncc(C)cc3C)nc2n1` (stereo not drawn) [Example 14, 2-[2-(3,5-Dimethyl)pyridylmethylsulfinyl]-5-ethoxyimidazo[4,5-b]pyridine] are 93%, 15 mg/kg and 100%.
Compound `COc1c(C)cnc(C[S+]([O-])c2nc3nc(OC(C)C)ccc3[nH]2)c1C` (stereo not drawn) [Example 15, 2-[2-(3,5-Dimethyl-4-methoxy)pyridylmethylsulfinyl]-5-isopropyloxyimidazo[4,5-b]pyridine] came in with a remaining at 192 h in “physchem” (75% rh) of 87%. The compound further had an ED50 in the data set on gastric acid secretion of 13 mg/kg. Moreover, the inhibition at 1000 µM at (H^+ +K^+) ATPase was 98.5%.
On to `COc1cc(C[S+]([O-])c2nc3nc(OC(C)C)ccc3[nH]2)ncc1C` (stereo not drawn) [Example 16, 2-[2-(4-Methoxy-5-methyl)pyridylmethylsulfinyl]-5-isopropyloxyimidazo[4,5-b]pyridine], for which the remaining at 192 h in the data set “physchem” (75% rh) was determined as 90%. In the data set on gastric acid secretion, this compound yielded an ED50 of 16 mg/kg. Moreover, the inhibition at 1000 µM on (H^+ +K^+) ATPase was 96.1%.
For `COc1ccnc(C[S+]([O-])c2nc3nc(OC(C)C)ccc3[nH]2)c1` (stereo not drawn) [Example 17, 2-[2-(4-Methoxy)pyridylmethylsulfinyl]-5-isopropyloxyimidazo[4,5-b]pyridine], the remaining at 192 h in “physchem” (75% rh) turned out to be 75%. In the data set with gastric acid secretion, the median effective dose (ED50) came out at 17 mg/kg. In addition, at (H^+ +K^+) ATPase, the inhibition at 1000 µM was 93.7%.
The matching figures for `CCCOc1ccc2[nH]c([S+]([O-])Cc3ncc(C)cc3C)nc2n1` (stereo not drawn) [Example 18, 2-[2-(3,5-Dimethyl)pyridylmethylsulfinyl]-5-n-propyloxyimidazo[4,5-b]pyridine]: 85%, 19 mg/kg and 92.3%.
In the same order, the values of `COc1c(C)cnc(C[S+]([O-])c2nc3nc(OCC(C)C)ccc3[nH]2)c1C` (stereo not drawn) [Example 20, 2-[2-(3,5-Dimethyl-4-methoxy)pyridylmethylsulfinyl]-5-isobutyloxyimidazo[4,5-b]pyridine] are 72%, 10 mg/kg and 100%.
The matching figures for `COc1cc(C[S+]([O-])c2nc3nc(OCC(C)C)ccc3[nH]2)ncc1C` (stereo not drawn) [Example 21, 2-[2-(4-Methoxy-5-methyl)pyridylmethylsulfinyl]-5-isobutyloxyimidazo[4,5-b]pyridine]: 69%, 13 mg/kg and 97.4%.
In turn, `COc1ccnc(C[S+]([O-])c2nc3nc(OCC(C)C)ccc3[nH]2)c1` (stereo not drawn) [Example 22, 2-[2-(4-Methoxy)pyridylmethylsulfinyl]-5-isobutyloxyimidazo[4,5-b]pyridine] displayed a remaining at 192 h in the data set “physchem” (75% rh) of 57%. The same compound came in with an ED50 in the data set on gastric acid secretion of 15 mg/kg. Also, on (H^+ +K^+) ATPase, the inhibition at 1000 µM was 94.6%.
The matching figures for `Cc1cnc(C[S+]([O-])c2nc3nc(OCC4CC4)ccc3[nH]2)c(C)c1` (stereo not drawn) [Example 23, 2-[2-(3,5-Dimethyl)pyridylmethylsulfinyl]-5-cyclopropylmethyloxyimidazo[4,5-b]pyridine]: 95%, 12 mg/kg and 100%.
In the same order, the values of `COc1ccnc(C[S+]([O-])c2nc3nc(OCC4CC4)ccc3[nH]2)c1` (stereo not drawn) [Example 25, 2-[2-(4-Methoxy)pyridylmethylsulfinyl]-5-cyclopropylmethyloxyimidazo[4,5-b]pyridine] are 51%, 18 mg/kg and 92.9%.
On to `Cc1ccnc(C[S+]([O-])c2nc3nc(OCC(F)(F)C(F)(F)C(F)(F)F)ccc3[nH]2)c1` (stereo not drawn) [Example 30, 2-[2-(4-Methyl)pyridylmethylsulfinyl]-5-(2,2,3,3,4,4,4-heptafluorobutyloxy)imidazo[4,5-b]pyridine], for which the remaining at 192 h in “physchem” (after treatment at 60° C. and 75% RH for 8 days, read-out: Storage stability, Percentage of residue) stood at 73%. For the same compound, in the data set on gastric acid secretion, the 50% effective dose (ED50) is 19 mg/kg. The inhibition at 1000 µM at (H^+ +K^+) ATPase is 92.1%.
As for `Cc1cnc(C[S+]([O-])c2nc3nc(OCCC(C)C)ccc3[nH]2)c(C)c1` (stereo not drawn) [Example 34, 2-[2-(3,5-Dimethyl)pyridylmethylsulfinyl]-5-(3-methylbutyloxy)imidazo[4,5-b]pyridine], the remaining at 192 h in “physchem” (75% rh) was 76%. The ED50 in the data set on gastric acid secretion worked out at 14 mg/kg. Further, at (H^+ +K^+) ATPase, the inhibition at 1000 µM amounted to 98.5%.
In the same order, the values of `COc1c(C)cnc(C[S+]([O-])c2nc3ncc(OCCCC4CCCC4)cc3[nH]2)c1C` (stereo not drawn) [Example 36, 2-[2-(3,5-Dimethyl-4-methoxy)pyridylmethylsulfinyl]-6-(3-cyclopentylpropyloxy)imidazo[4,5-b]pyridine] are 68%, 19 mg/kg and 93%.

Usually ED50 stands for the midpoint of the dose-response relation. A high value points to a need for a large dose. By inhibition is commonly meant the relative decrease from the control value, in per cent.
